# US11447535B2, “GLP-1 analogues” (Sun Pharmaceutical Industries Limited, priority 2018, dated 2022)
# Marks after values point to notes of the source that are not given here. Where no end group is shown, it is not given here. Moiety B = not defined here
# How the values were obtained:
# SD rats = experiment: Oral glucose tolerance test (OGTT) in rats; single injection; 1 mg/kg; assay type: in vivo; parameters: Change in AUC (mg/dL*min): unit not given here; conditions: for Blood Glucose AUC (mg/dL*min) Mean: Exp. 2; for Change in AUC (mg/dL*min): Exp. 2, vs control group
# Method: (§1) Animals were divided into three groups—a normal control group, a test group and a third semaglutide group, with 4 animals in each group. The animals were fasted for 12 hours before initiation of OGTT. To the test group animals, the Compound 1 was injected subcutaneously at 1 mg/kg dose. To the semaglutide group, a dose of 1 mg/kg was injected subcutaneously. After 22 hrs, 166 hrs and 334 hrs of subcutaneous injection of test drug or semaglutide, blood glucose was measured with blood glucose meter (time 0 measurements). All the animals were then given 2 g/kg of glucose solution orally. Blood glucose was measured at 20, 40, 60, 90 and 120 minutes following glucose challenge. Body weight and food intake was recorded. Blood glucose data was analyzed using Two way ANOVA followed by Bonferroni posttests using PRISM (Graph Pad version 5.03). Data of Blood glucose AUC0-120 min, was analyzed using t test.
# as §1, with “animals,” for “animals, the”, “1, Compound 13 and Compound 16 were” for “1 was”, “compound” for “drug”
# [1] = system: db/db mice (diabetic mouse model); experiment: Separate db/db diabetic mouse study, q2d*15 up to day 28, recovery period day 29 to day 45; assay type: in vivo; conditions: for Blood Glucose AUC (Day 30-37) % Change vs Control / Blood Glucose AUC (Day 30-37) (mg/dL*days) Mean / Blood Glucose AUC (Day 38-45) % Change vs Control / Blood Glucose AUC (Day 38-45) (mg/dL*days) Mean: recovery period
# Method: The study was performed in similar manner as above on diabetic mouse model. The animals were divided into three treatment groups—a diabetic control group, a test group and a semaglutide treatment group. The representative compounds of the present disclosure, Compound 1, Compound 13 and Compound 16, were injected subcutaneously at 3.04 or 6.078 nM dose (every alternate day up to day 28 (q2d*15). The same dosage regimen was administered in semaglutide treatment group. Measurements of blood glucose levels and body weight were done daily. % HbA1c, Insulin was measured on Day 0, day 14 and day 29. Cumulative food intake and body weight change was calculated on day 14 and 29. % HbA1c, Insulin data was analyzed by two way ANOVA followed by Bonferroni's posttests using PRISM (Graph Pad version 5.03). Whereas Blood Glucose AUC, Body weight change and Cumulative food intake data was analyzed by one way ANOVA followed by Bonferroni's posttests using PRISM (Graph Pad version 5.03). From day 29 to day 45, animals were kept on recovery period during which no drug treatment was given. Blood Glucose and Body weight was measured during this period. On day 45, Body weight Changes, % HbA1c, Insulin was measured.
# [2] = Food intake and body weight recorded in the rat OGTT study; assay type: in vivo, rats; conditions: 1 mg/Kg; for Body Weight Change (%) Mean / Food Consumption (g) Mean: Exp. 2
# Method: as §1
# as §1, with “animals,” for “animals, the”, “1, Compound 13 and Compound 16 were” for “1 was”, “compound” for “drug”
# [3] = OGTT, 1 mg/Kg dose, after 24 hrs
# [4] = earlier dose 3.04 nM (3.4 nM given for Compound 16)
# [5] = recovery study, day 45, earlier dose 3.04 nM
# [6] = recovery study, day 45, earlier dose 6.078 nM (6.0788 nM given for Compound 13)
substance,measurement,setting,value
"Compound 6: SEQ ID NO: 10, Moiety B; differs from liraglutide in having an additional Leu at 32nd position (HAEGTFTSDVSSYLEGQAAK(Moiety B)EFIAWLVRGRGL-OH; reading uncertain)",% Glucose Reduction (Blood Glucose AUC0-120 min),SD rats; [3],75.8%
same,Comp/std Liraglutide (ratio of % glucose reduction),SD rats; [3],1.83
same,blood glucose lowering effect vs liraglutide,"SD rats; OGTT, 1 mg/Kg, at 24 hrs",significantly higher than liraglutide
"Compound 16: SEQ ID NO: 05, acylated with Moiety D (HXXXGTFTSDVSSYLXGQAAXEFXAWLVRGRGXX; lipidated side chain; (2)..(2) Xaa = Aib; (3)..(3) Xaa = absent.; (4)..(4) Xaa = Glu.; (16)..(16) Xaa = Glu.; (21)..(21) Lys is substituted; (24)..(24) Xaa is Ile.; (33)..(33) Xaa is Leu.; (34)..(34) Xaa is absent.)",Blood Glucose AUC (Day 0-29) % Change Vs Control,"[1]; 3.04 nM, q2d*15",−44.54%
same,Blood Glucose AUC (Day 0-29) (mg/dL*days) Mean,"[1]; 3.04 nM, q2d*15",9399.0*** mg/dL*days
same,"Body Weight Change Day 29, % Change vs Day 0 Mean","[1]; 3.04 nM, q2d*15",−1.4%
same,Cumulative Food Intake (g) Day 0-29 Mean,"[1]; 3.04 nM, q2d*15",77.4 g
same,Blood Glucose AUC (Day 0-29) % Change Vs Control,"[1]; 6.078 nM, q2d*15",−52.29%
same,Blood Glucose AUC (Day 0-29) (mg/dL*days) Mean,"[1]; 6.078 nM, q2d*15",8086.1***## mg/dL*days
same,"Body Weight Change Day 29, % Change vs Day 0 Mean","[1]; 6.078 nM, q2d*15",−5.5%
same,Cumulative Food Intake (g) Day 0-29 Mean,"[1]; 6.078 nM, q2d*15",66.7 g
same,% HbA1C Mean,"[1]; Day 0, 3.04 nM, q2d*15",7.74%
same,Insulin (ng/mL) Mean,"[1]; Day 0, 3.04 nM, q2d*15",13.9 ng/mL
same,% HbA1C Mean,"[1]; Day 0, 6.078 nM, q2d*15",7.83%
same,Insulin (ng/mL) Mean,"[1]; Day 0, 6.078 nM, q2d*15",21.8 ng/mL
same,% HbA1C Mean,"[1]; Day 14, 3.04 nM, q2d*15",5.67 ***# %
same,Insulin (ng/mL) Mean,"[1]; Day 14, 3.04 nM, q2d*15",50.8* ng/mL
same,% HbA1C Mean,"[1]; Day 14, 6.078 nM, q2d*15",5.64 ***# %
same,Insulin (ng/mL) Mean,"[1]; Day 14, 6.078 nM, q2d*15",58.1** ng/mL
same,% HbA1C Mean,"[1]; Day 29, 3.04 nM, q2d*15",5.33 ***# %
same,Insulin (ng/mL) Mean,"[1]; Day 29, 3.04 nM, q2d*15",53.8** ng/mL
same,% HbA1C Mean,"[1]; Day 29, 6.078 nM, q2d*15",5.16 ***# %
same,Insulin (ng/mL) Mean,"[1]; Day 29, 6.078 nM, q2d*15",68.2*** ng/mL
same,"HbA1c, blood glucose, food consumption and body weight vs control",[1]; about 3 nM and 6 nM dose,significant reduction
same,Blood Glucose AUC (Day 30-37) % Change vs Control,[1]; [4],−32.62%
same,Blood Glucose AUC (Day 30-37) (mg/dL*days) Mean,[1]; [4],2420.0** mg/dL*days
same,Blood Glucose AUC (Day 38-45) % Change vs Control,[1]; [4],−8.82%
same,Blood Glucose AUC (Day 38-45) (mg/dL*days) Mean,[1]; [4],3284.0* mg/dL*days
same,Blood Glucose AUC (Day 30-37) % Change vs Control,[1]; earlier dose 6.078 nM,−39.65%
same,Blood Glucose AUC (Day 30-37) (mg/dL*days) Mean,[1]; earlier dose 6.078 nM,2167.7*** mg/dL*days
same,Blood Glucose AUC (Day 38-45) % Change vs Control,[1]; earlier dose 6.078 nM,−12.97%
same,Blood Glucose AUC (Day 38-45) (mg/dL*days) Mean,[1]; earlier dose 6.078 nM,3134.7** mg/dL*days
same,% HbA1C Mean,[1]; [5],7.1* %
same,Delta HbA1C vs. DC,[1]; [5],−1.4
same,Insulin (ng/mL) Mean,[1]; [5],15.5 ng/mL
same,% HbA1C Mean,[1]; [6],7.2* %
same,Delta HbA1C vs. DC,[1]; [6],−1.3
same,Insulin (ng/mL) Mean,[1]; [6],18.4 ng/mL
same,Body Weight % Change vs Day 45 Mean,"[1]; recovery study, earlier dose 3.04 nM",6.1%
same,Body Weight % Change vs Day 45 Mean,"[1]; recovery study, earlier dose 6.078 nM (6.0788 nM given for Compound 13)",5.7%
same,Body Weight Change (%) Mean,[2]; 48 h,−10.7%
same,Food Consumption (g) Mean,[2]; 48 h,5.9 g
same,Body Weight Change (%) Mean,[2]; 154 h,−7.0%
same,Body Weight Change (%) Mean,[2]; 324 h,−4.3%
same,Food Consumption (g) Mean,[2]; 324 h,104.3 g
same,food consumed vs animals administered with semaglutide,[2]; text on Table 8,consumed significantly less food
same,lowering of body weight,[2]; text on Table 8,substantial lowering of body weight
same,Blood Glucose AUC (mg/dL*min) Mean,"SD rats; OGTT, 1 mg/Kg, 22 hr",1646 mg·min/dL
same,Change in AUC (mg/dL*min),"SD rats; OGTT, 1 mg/Kg, 22 hr",−80.7
same,Blood Glucose AUC (mg/dL*min) Mean,"SD rats; OGTT, 1 mg/Kg, 168 hr",4283 mg·min/dL
same,Change in AUC (mg/dL*min),"SD rats; OGTT, 1 mg/Kg, 168 hr",−57.6
same,Blood Glucose AUC (mg/dL*min) Mean,"SD rats; OGTT, 1 mg/Kg, 336 hr",8295.0 mg·min/dL
same,Change in AUC (mg/dL*min),"SD rats; OGTT, 1 mg/Kg, 336 hr",−2.3
same,reduction in blood glucose AUC,"SD rats; after 168 hrs of injection, 1 mg/kg",about 60%
